According to patent publication US8609836B2, “4-aryl-2-anilino-pyrimidines” (Janssen Pharmaceutica NV, priority 2008, dated 2013):
pIC50: −log10 of the molar value.

Key:
HCT-116 = experiment: Cellular proliferation assay (Alamar blue), HCT-116; assay type: cell-based; conditions: Homo sapiens, 10% FCS, 72 hours with compound, Alamar blue 4 h
Procedure: (§1) […] functional properties of these compounds were tested in cellular proliferation assays on a panel of different cell lines in the presence of 10% FCS serum (37° C. and 5% (v/v) CO2). In a first step these cells were seeded and incubated for 24 hours in the absence of compound. In the second step the cells were incubated for 72 hours with the compounds to be tested for 72 hours. The viable cell number was finally assessed in a standard Alamar blue cell viability assay.
(§2) The viable cell number was assessed by incubation for either 4 h (HCT-116, H1299) 6 h (U87-MG) or 24 h (A2780, MDA-MB-231) with Alamar blue (Resazurin 9 μg/ml, K-Ferrocyanide 90 μM, K-Ferricyanide 90 μM) and the converted fluorescent product was quantified on a fluorescent plate reader (544 nm/590 nm). Effect of the compounds is calculated as of on control cells.

H1299 = experiment: Cellular proliferation assay (Alamar blue), H1299; assay type: cell-based; conditions: Homo sapiens, NCI-H1299; 10% FCS; 72 hours with compound; Alamar blue 4 h
Procedure: as §1, §2

PLK3 (h) = PLK3 (h) (Homo sapiens, UniProt Q9H4B4); experiment: PLK3 human kinase inhibition, SPA; assay type: biochemical; conditions: read-out: PLK3 pIC50 (converted)
Sequence of PLK3 (h) (Q9H4B4 whole entry): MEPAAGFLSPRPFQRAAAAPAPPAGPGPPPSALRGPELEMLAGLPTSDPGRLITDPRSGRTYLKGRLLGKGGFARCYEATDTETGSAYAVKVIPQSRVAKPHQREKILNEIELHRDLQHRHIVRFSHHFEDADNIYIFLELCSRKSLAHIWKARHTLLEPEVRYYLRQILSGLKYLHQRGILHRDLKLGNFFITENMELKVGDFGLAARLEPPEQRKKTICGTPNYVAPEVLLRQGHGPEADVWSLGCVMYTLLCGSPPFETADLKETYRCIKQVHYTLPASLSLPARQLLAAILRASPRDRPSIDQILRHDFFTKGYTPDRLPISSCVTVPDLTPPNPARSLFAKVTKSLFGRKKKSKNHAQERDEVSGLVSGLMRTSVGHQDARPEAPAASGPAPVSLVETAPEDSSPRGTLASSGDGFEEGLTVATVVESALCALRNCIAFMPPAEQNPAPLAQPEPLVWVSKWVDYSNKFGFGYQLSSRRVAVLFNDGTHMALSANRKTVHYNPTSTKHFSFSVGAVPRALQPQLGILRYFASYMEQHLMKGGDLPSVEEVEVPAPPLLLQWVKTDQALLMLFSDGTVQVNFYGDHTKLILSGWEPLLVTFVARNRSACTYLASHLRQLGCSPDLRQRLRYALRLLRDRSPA
Procedure: (§3) The in vitro inhibition of a panel of kinases was assessed using either the scintillation proximity assay (SPA) as described by Cook, N. D. et al., Advances in Experimental Medicine and Biology (1991), 36; p. 525-528.
(§4) In the SPA technology the activity of the kinase of interest is measured using an appropriate biotinylated substrate that is incubated with the aforementioned kinase protein in the presence of (^33P) radiolabeled ATP. (^33P) Phosphorylation of the substrate is subsequently measured through binding of the phosphorylated substrate to streptavidine coated beads that are based on the scintillant poly(vinyl toluene) (PVT-Beads). The scintillation intensity is detected by imaging on Leadseeker.
(§5) All kinases are pre-diluted to a 10× working concentration prior to addition into the assay. The composition of the dilution buffer for each kinase is detailed below.
(§6) In a final reaction volume of 30 μl, PLK3 (h) (30 μg/ml) is incubated with 50 mM Hepes pH 8.0, 2 mM MnCl2, 1 mM DTT, 2 μM of peptide Biotin-Tds linker-[…], 0.1 μM ATP and 2 nM [γ-^33P-ATP] (6.0 μCi/ml). After incubation of 20 minutes at room temperature, the reaction is stopped by addition of 40 μL of stop solution containing 8.7 mM EDTA, BSA 0.17%, 0.17% Triton X-100, 25 mg/ml SPA beads (GE-healthcare). The plate is centrifuged and read for Scintillation imaging on Leadseeker.

PLK4 (h) = PLK4 (h) (Homo sapiens, UniProt O00444); experiment: PLK-4 human kinase inhibition, scintillation proximity assay (SPA); assay type: biochemical; conditions: read-out: PLK4 pIC50 (converted)
Sequence of PLK4 (h) (O00444 whole entry): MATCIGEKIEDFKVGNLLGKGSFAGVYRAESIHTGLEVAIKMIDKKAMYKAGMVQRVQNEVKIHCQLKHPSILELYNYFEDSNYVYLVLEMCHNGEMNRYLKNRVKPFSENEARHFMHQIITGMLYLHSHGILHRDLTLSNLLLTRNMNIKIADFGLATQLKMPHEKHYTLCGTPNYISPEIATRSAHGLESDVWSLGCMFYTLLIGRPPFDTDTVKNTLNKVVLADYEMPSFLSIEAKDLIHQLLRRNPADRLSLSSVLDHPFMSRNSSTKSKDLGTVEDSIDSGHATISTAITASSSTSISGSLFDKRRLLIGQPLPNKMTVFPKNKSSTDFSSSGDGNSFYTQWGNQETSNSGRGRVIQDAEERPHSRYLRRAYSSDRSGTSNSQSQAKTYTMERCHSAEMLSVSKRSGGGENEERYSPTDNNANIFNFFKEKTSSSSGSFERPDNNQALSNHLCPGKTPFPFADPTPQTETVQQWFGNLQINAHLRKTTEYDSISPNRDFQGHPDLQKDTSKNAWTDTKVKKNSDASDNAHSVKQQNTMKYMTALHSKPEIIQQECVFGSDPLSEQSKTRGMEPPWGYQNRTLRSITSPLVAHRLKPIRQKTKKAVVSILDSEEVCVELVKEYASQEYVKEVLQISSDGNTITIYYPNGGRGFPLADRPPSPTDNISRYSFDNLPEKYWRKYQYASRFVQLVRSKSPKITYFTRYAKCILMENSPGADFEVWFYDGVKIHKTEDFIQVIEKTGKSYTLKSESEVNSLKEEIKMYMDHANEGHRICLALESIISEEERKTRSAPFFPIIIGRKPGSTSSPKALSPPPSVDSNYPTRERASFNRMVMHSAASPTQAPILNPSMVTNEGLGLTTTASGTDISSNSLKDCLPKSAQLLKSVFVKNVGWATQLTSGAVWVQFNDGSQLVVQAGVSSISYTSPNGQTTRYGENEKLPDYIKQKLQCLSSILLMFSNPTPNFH
Procedure: as §4, §5
(6.0 μCi/ml). After incubation of 60 minutes at room temperature, the reaction is stopped by addition of 40 μL of stop solution containing 8.7 mM EDTA, BSA 0.17%, 0.17% Triton X-100, 1.7 mg/ml SPA beads (GE-healthcare). The plate is centrifuged and read for Scintillation imaging on Leadseeker.

MDA-MB-231 = experiment: Cellular proliferation assay (Alamar blue), MDA-MB-231; assay type: cell-based; conditions: Homo sapiens, 10% FCS, 72 hours with compound, Alamar blue 24 h, read-out: MDA/MB231 (cellular proliferation assay, Table 4) (converted)
Procedure: as §1, §2

A2780 = experiment: Cellular proliferation assay (Alamar blue), A2780; assay type: cell-based; conditions: Homo sapiens, 10% FCS, 72 hours with compound, Alamar blue 24 h, read-out: A2780 (cellular proliferation assay, Table 4) (converted)
Procedure: as §1, §2

CDK1/CyclinB (h) = CDK1/CyclinB (h) (Homo sapiens, UniProt P06493); experiment: CDK1/CyclinB human kinase inhibition, Invitrogen's FRET assay (Z'lyte); assay type: biochemical; conditions: read-out: CDK1 pIC50 (converted)
Sequence of CDK1/CyclinB (h) (P06493 whole entry): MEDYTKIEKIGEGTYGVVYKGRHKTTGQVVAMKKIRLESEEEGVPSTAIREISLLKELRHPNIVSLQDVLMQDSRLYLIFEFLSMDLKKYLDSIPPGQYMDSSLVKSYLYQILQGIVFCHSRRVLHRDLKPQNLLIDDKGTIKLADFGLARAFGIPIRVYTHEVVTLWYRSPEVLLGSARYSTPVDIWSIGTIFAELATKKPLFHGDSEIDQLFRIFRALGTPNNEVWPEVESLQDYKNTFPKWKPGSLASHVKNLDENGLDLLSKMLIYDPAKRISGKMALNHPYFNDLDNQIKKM
Sequence of CDK1/CyclinB (h) (P14635 whole entry partner): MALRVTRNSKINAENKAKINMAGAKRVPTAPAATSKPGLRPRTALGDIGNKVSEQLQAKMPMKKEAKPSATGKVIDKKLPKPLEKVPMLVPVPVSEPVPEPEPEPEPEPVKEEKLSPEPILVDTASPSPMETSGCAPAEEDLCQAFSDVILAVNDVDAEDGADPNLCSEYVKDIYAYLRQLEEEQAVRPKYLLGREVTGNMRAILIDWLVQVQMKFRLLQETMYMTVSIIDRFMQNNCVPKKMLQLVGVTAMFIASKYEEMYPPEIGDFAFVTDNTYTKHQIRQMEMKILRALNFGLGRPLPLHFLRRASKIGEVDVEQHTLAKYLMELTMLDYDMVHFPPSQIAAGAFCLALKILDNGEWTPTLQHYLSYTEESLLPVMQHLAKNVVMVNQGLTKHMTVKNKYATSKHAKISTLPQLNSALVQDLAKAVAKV
Procedure: as §3, §5
In a final reaction volume of 10 μl, CDK1/CyclinB (h) (0.2 μg/ml) is incubated with 50 mM Hepes pH 7.5, 10 mM MgCl2, 1 mM EGTA, 0.01% Brij-35, 2 μM Z'lyte Ser/Thr peptide 12 and 10 μM ATP (Invitrogen's FRET assay). After incubation of 60 minutes at room temperature, the reaction is stopped by addition of 5 μL development reagent containing protease mix. After 60 minutes room temperature the development reaction is stopped by adding 5 μl stop solution. The plate is then read in fluorescence plate reader with excitation: 390 nm and dual emission: 460 and 538 nm. Emission ratio is determined to the formula=Emission signal intensity at 460 nm/Emission signal intensity at 538 nm.

U87-MG = experiment: Cellular proliferation assay (Alamar blue), U87-MG; assay type: cell-based; conditions: Homo sapiens, U-87 MG; 10% FCS; 72 hours with compound; Alamar blue 6 h; read-out: U87-MG (cellular proliferation assay, Table 4) (converted)
Procedure: as §1, §2

AuroraB (h) = AuroraB (h) (Homo sapiens, UniProt Q96GD4); experiment: Aurora-B human kinase inhibition, SPA; assay type: biochemical; conditions: read-out: AuroraB pIC50 (converted)
Sequence of AuroraB (h) (Q96GD4 whole entry): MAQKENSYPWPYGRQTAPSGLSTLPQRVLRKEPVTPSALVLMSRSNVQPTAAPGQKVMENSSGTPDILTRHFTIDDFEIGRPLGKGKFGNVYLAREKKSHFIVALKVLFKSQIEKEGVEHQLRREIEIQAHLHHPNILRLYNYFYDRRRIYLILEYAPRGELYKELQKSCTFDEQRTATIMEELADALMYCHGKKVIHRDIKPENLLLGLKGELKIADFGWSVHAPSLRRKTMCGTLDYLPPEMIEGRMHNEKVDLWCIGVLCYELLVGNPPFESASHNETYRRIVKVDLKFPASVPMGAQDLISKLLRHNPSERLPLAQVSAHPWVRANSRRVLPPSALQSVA
Procedure: as §3, §4, §5
In a final reaction volume of 30 μl, AuroraB (h) (0.5 μg/ml) is incubated with 60 mM Hepes pH 7.5, 3 mM MgCl2, 3 mM MnCl2, 3 μM Na3VO4, 0.05 mg/ml PEG, 2 mM DTT, 3 μM Biotin-[…]-OH, 0.5 μM ATP and 2.2 nM [γ-^33P-ATP] (6.8 μCi/ml). After incubation of 60 minutes at room temperature, the reaction is stopped by addition of 40 μL of stop solution containing 8.7 mM EDTA, BSA 0.17%, 0.17% Triton X-100, 5 mg/ml SPA beads (GE-healthcare). The plate is centrifuged and read for Scintillation imaging on Leadseeker.

GSK3β (h) = GSK3β (h) (Homo sapiens, UniProt P49841); experiment: GSK-3β human kinase inhibition, SPA; assay type: biochemical; conditions: read-out: GSK3b pIC50 (converted)
Sequence of GSK3β (h) (P49841 whole entry): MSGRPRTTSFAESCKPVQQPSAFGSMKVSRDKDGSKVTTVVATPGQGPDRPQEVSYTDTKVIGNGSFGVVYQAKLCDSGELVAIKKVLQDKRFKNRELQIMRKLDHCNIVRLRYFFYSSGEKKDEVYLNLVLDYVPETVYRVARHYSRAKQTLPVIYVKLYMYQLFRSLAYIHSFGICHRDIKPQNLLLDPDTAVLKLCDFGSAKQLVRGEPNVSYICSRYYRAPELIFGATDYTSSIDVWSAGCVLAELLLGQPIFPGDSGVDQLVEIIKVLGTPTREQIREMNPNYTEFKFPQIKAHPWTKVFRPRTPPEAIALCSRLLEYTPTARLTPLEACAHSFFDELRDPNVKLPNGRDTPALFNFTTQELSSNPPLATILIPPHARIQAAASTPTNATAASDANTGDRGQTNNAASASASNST
Procedure: as §3, §4, §5
In a final reaction volume of 30 μl, GSK3β (h) (1 μg/ml) is incubated with 25 mM Tris pH 7.4, 10 mM MgCl2, 1 mM DTT, 1 μM peptide Biotin-[…]-OH, 1 μM ATP and 2 nM [γ-^33P-ATP] (6.0 μCi/ml). After incubation of 60 minutes at room temperature, the reaction is stopped by addition of 40 μL of stop solution containing 8.7 mM EDTA, BSA 0.17%, 0.17% Triton X-100, 6.25 mg/ml SPA beads (GE-healthcare). The plate is centrifuged and read for Scintillation imaging on Leadseeker.

PLK1 T210D (h) = PLK1 T210D (h) (Homo sapiens, UniProt P53350, T210D); experiment: PLK1 human kinase inhibition, SPA; assay type: biochemical; conditions: read-out: PLK1 pIC50 (converted)
Sequence of PLK1 T210D (h) (P53350 whole entry T210D): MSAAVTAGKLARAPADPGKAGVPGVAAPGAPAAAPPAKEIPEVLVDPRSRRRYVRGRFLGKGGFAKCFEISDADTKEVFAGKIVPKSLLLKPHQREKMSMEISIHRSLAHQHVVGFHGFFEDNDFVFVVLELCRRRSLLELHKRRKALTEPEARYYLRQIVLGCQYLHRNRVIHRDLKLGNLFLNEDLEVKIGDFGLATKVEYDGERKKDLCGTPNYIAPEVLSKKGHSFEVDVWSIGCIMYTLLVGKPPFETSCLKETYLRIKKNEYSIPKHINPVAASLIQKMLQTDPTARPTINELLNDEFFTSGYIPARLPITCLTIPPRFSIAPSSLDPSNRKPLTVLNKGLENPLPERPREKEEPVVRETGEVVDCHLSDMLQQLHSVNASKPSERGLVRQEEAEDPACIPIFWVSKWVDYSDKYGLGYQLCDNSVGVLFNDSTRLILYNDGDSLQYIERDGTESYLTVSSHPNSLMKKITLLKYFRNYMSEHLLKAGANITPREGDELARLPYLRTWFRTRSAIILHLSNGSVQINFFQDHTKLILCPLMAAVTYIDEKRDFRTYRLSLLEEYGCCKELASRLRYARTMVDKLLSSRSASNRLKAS
Procedure: as §3, §4, §5
as §6, with “PLK1 T210D” for “PLK3”, “(0.125 ng/ml)” for “(30 μg/ml)”, “40” for “20”

PLK2 (h) = PLK2 (h) (Homo sapiens, UniProt Q9NYY3); experiment: PLK2 human kinase inhibition, SPA; assay type: biochemical; conditions: read-out: PLK2 pIC50 (converted)
Sequence of PLK2 (h) (Q9NYY3 whole entry): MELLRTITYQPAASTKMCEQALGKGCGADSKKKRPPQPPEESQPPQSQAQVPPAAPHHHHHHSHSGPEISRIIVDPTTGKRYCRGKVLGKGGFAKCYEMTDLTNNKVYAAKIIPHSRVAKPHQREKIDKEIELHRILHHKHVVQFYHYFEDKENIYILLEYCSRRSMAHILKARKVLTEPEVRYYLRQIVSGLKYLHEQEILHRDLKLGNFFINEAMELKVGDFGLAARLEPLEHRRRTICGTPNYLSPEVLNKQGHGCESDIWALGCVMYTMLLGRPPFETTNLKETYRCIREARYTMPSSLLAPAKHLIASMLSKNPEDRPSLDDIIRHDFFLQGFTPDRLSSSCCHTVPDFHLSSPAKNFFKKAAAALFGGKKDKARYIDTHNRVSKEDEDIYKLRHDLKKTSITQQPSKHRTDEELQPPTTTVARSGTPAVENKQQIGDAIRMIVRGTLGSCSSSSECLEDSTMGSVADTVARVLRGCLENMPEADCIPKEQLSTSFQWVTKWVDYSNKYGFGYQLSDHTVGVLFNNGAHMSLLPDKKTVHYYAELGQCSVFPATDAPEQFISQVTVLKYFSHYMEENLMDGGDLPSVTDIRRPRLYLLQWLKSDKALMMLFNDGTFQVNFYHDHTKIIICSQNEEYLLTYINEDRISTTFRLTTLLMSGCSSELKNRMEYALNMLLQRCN
Procedure: as §3, §4, §5
as §6, with “PLK2” for “PLK3”

SMILES	pIC50 (HCT-116)	pIC50 (H1299)	IC50 (PLK3 (h)) [µM]	IC50 (PLK4 (h)) [µM]	IC50 (MDA-MB-231) [µM]	IC50 (A2780) [µM]	IC50 (CDK1/CyclinB (h)) [µM]	IC50 (U87-MG) [µM]	IC50 (AuroraB (h)) [µM]	IC50 (GSK3β (h)) [µM]	IC50 (PLK1 T210D (h)) [µM]	IC50 (PLK2 (h)) [µM]
CC(C)Nc1cc2cc(c1)Nc1nccc(n1)-c1ccc(cc1)CN(C)CCCNC(=O)[C@H](CO)NC2 [Compound 111]	< 5.00	< 5.00	> 10	0.813	> 10	> 10	> 10	> 10	> 10	> 10	> 10	> 3.02
COc1ccc2cc1CN(C)CCCNC(=O)[C@H](CO)NCc1cc(Br)cc(c1)Nc1nccc-2n1 [Compound 112]	< 5.00	< 5.00	> 10	0.912	> 10	> 10	> 10	> 10	3.31	3.89	> 10	> 10
COc1ccc2cc1CN(C)CCNC(=O)[C@H](C)NCc1cc(ccc1N1CCOCC1)Nc1nccc-2n1 [Compound 116]	5.39	< 5.00	> 10	1.48	> 10	> 10	> 10	5.75	> 10	> 10	> 10	> 10
O=C1NCCNCc2ccc(cc2)-c2ccnc(n2)Nc2ccc(N3CCOCC3)c(c2)CN[C@H]1Cc1ccccc1 [Compound 117]	5.37	5.12	> 10	2.24	> 10	6.03	> 10	3.89	> 10	1	> 10	> 10
COc1ccc2cc1CN(C)CCNC(=O)[C@H](CO)NCc1cccc(c1)Nc1nccc-2n1 [Compound 120]	< 5.00	< 5.00	> 10	7.08	> 10	> 10	> 10	> 10	> 10	> 10	> 10	> 10
O=C1NCc2cccc(c2)-c2ccnc(n2)Nc2cc(ccc2Cl)CN2CCC1CC2 [Compound 123]	< 5.00	< 5.00	> 10	8.13	> 10	> 10	1.91	> 10	> 10	2.75	> 10	> 10
CC(C)Nc1cc2cc(c1)Nc1nccc(n1)-c1ccc(cc1)CN(C)CCNC(=O)CN1CCN(CC1)C2 [Compound 128]	< 5.00	< 5.00	> 10	1.02	> 10	> 10	1.38	7.94	> 10	1.95	> 10	> 10
CN1CCNC(=O)CN2CCN(CC2)Cc2cc(Br)cc(c2)Nc2nccc(n2)-c2ccc(cc2)C1 [Compound 129]	5.07	< 5.00	> 3.02	1.12	> 10	> 10	4.17	4.9	> 10	0.49	> 10	> 10
CN1CCCNC(=O)CN2CCN(CC2)Cc2cc(cc(N3CCOCC3)c2)Nc2nccc(n2)-c2ccc(cc2)C1 [Compound 136]	6.45	5.52	> 10	1.82	> 10	2.34	> 10	1.7	> 10	6.76	> 10	> 10
O=C1CN2CCN(CC2)Cc2cc(ccc2N2CCOCC2)Nc2nccc(n2)-c2ccc(cc2)CNCCCN1 [Compound 139]	5.13	< 5.00	> 10	2.19	> 10	7.41	> 10	2.09	> 10	> 10	> 10	> 10
COc1cc2cc(c1OC)CNC(=O)[C@@H]1CCCN1Cc1cccc(c1)-c1ccnc(n1)N2 [Compound 150]	5.37	< 5.00	> 10	0.832	> 10	> 10	5.89	> 10	> 10	0.1	> 10	> 10
